The text below walks through data of US20100209934A1, “METHOD OF IDENTIFYING AGENTS WHICH MODULATE THE ACTIVITY OF CALCIUM-ACTIVATED CHLORIDE CHANNEL” (SNU R&DB FOUNDATION, priority 2007, published 2010).

The target in assay [1] is T1, mANO1 (Mus musculus, UniProt Q8BHY3, S527P).
T1 sequence (Q8BHY3 1-960 S527P): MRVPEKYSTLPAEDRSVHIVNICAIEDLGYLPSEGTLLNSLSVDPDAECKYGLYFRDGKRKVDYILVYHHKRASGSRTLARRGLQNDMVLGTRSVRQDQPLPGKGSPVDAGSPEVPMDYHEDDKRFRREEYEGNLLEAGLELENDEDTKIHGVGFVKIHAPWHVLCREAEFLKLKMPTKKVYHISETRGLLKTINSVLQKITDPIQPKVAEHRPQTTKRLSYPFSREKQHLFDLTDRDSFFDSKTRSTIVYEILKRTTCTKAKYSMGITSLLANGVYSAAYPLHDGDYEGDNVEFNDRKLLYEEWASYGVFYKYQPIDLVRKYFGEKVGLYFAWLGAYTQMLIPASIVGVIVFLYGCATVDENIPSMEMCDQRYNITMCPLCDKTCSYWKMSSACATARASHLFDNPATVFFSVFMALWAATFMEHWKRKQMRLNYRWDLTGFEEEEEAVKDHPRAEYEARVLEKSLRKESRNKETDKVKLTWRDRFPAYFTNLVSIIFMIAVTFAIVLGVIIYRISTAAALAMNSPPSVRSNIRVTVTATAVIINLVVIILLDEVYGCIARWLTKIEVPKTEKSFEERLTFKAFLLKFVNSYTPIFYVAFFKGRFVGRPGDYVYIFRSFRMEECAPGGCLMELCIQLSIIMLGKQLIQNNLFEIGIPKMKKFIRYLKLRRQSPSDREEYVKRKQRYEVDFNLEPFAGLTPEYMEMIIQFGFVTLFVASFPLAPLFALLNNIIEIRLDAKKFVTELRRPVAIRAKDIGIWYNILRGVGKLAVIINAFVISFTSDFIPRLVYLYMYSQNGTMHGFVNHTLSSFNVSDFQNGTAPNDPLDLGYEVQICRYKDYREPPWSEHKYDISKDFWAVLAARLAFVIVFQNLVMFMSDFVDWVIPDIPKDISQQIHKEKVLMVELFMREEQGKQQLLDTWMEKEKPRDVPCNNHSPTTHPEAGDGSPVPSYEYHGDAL
Nature of the assay: Inhibition of endothelin-1 evoked currents in mANO1-ETAR/HEK cells by Cl− channel and CaCC blockers. The assay is classed as cell-based. The arrangement: expressed in transfected cells. Particulars: ANO1/ETAR-HEK cells; blockers 10 μM (mefloquine 5 μM) applied 5 min before second 50 nM endothelin-1. As to the method:
B. Inhibition of endothelin-1 evoked currents in mANO1-ETAR/HEK cells by Cl^− channel blockers as well as classical inhibitors (each, n=5) of native CaCCs. Chemicals in 10 μM (except mefloquine, 5 μM) were applied 5 min before the second application of endothelin-1. Control (n=12). **p<0.001 compared to control (ANOVA, Duncan's post hoc test). (Error bars=Mean±S.E.M)
(§1) To form gigaseals, individual cell surfaces were touched with a ˜3 Mohm Sylgard-coated glass pipette with gentle suction, and the junction potential was then adjusted to 0 mV. The membrane in contact with the pipette was then ruptured by suction to form a whole cell. The pipette solution contained 140 mM NMDG-Cl, 2 mM MgCl2, 10 mM HEPES, 2 mM ATP, and 0.3 mM GTP adjusted to pH 7.2, and the bath solution contained 140 mM NMDG-Cl, 2 mM MgCl2 and 10 mM HEPES (pH 7.2). For ion selectivity experiments, 140 mM NMDG-Cl was replaced with equimolar NaCl, NaL NaBr, NaNO3, NaF, or Na-gluconate in the bath solution. To determine current-voltage relationships, voltage ramps from −80 or −100 mV to +80 or +100 mV were delivered for 350 ms, or voltage-pulses from −100 mV to +100 mV were delivered for 400 ms to whole cells. When mANO1 was activated by 300 nM intracellular Ca^2+, voltage-pulses of 2500 ms were delivered. Whole-cell currents were amplified using an Axopatch 200B amplifier (Molecular Device, Sunnyvale, Calif.) and stored in a personal computer after digitization by a Digidata 1440 (Molecular Device). For single-channel current recordings, cell-attached or inside-out patches were formed from gigaseals. The pipette and control bath solution contained 140 mM NMDG-Cl, 2 mM MgCl2 and 10 mM HEPES (pH 7.2). […] To create amplitude histograms, pClamp software (version 6.0, Molecular Device) was used to analyze open and closed single-channel current events. The half-amplitude algorithm was used to determine an open event. The minimum duration of an open event was set at 0.1 ms.
(§2) LPA-induced ANO1 currents were blocked by Cl^− channel blockers. The Cl^− channel blockers were applied 10˜20 min before the LPA application. […] This blockade of agonist-induced ANO1 currents by DIDS, niflumic acid, or NPPB were also observed in mammalian cells transfected with mANO1.
In addition, modifiers of various enzymes or transporters such as fluoxetine (serotonin reuptake inhibitor), tamoxifen (estrogen receptor modulator), n-phenyl-anthranilic acid (NPA, cyclooxygenase inhibitor), and mefloquine (antimalarial drug) are known to block native CaCCs (Eggermont, J., Proc Am Thorac Soc. 1, 22-7 (2004); Nilius, B. et al. J Physiol. 498, 381-96 (1997); Nilius, B. & Droogmans, G., Acta Physiol Scand 177, 119-47 (2003)). If ANO1 is a CaCC, mANO1 should be inhibited by these CaCC blockers.

For assay [2], the target named is T1, mANO1. Nature of the assay: Two-electrode voltage clamp currents in Xenopus oocytes injected with mANO1 complementary RNA. The assay is classed as cell-based. More on the design: expressed in transfected cells; host or cells: Xenopus laevis oocytes (cRNA injection). Particulars: for block of LPA current responses by pretreatment: mANO1 oocytes, 1 μM thapsigargin for 3 hours or 10 μM U-73122 for 20 min before 1 μM LPA; for block of LPA-induced ANO1 currents: DIDS 300 μM, niflumic acid 200 μM, NPPB 200 μM applied 10˜20 min before LPA. Here is the method:
pSDTF-mANO1 obtained in Reference Example 1 was linearized using BamHI. Complementary RNA was transcribed with SP6 RNA polymerase (mMESSAGE mMACHINE® SP6 Kit, Ambion, Austin, Tex.). After being defolliculated with collagenase (Type IA, Sigma), Xenopus laevis oocytes were injected with 50 ng of the complementary RNAs of mANO1 in 50 nl of diethylpyrocarbonate-treated water. Two to five days after the injection, whole cell currents were recorded using the two-electrode voltage clamp technique. The bath solution contained 96 mM NaCl, 1 mM MgCl2, 5 mM HEPES, 2 mM KCl and 1.8 mM CaCl2 at pH 7.5 and was perfused at 2 ml/min. Experiments were performed at room temperature.
Xenopus oocytes provide a recognized model for endogenous CaCC studies because they express endogenous CaCCs that are required for ‘fertilization depolarization’ (Hartzell, H. C. et al., Mol Pharmacol 51, 683-92 (1997)). Furthermore, the biophysical and pharmacological properties of Xenopus CaCCs are similar to those of mammalian CaCCs (Machaca, K. et al., Calcium-Activated Chloride Channels (ed. Fuller, C. M.) (Academic Press, Amsterdam, 2002)). Accordingly, the present inventors expressed mANO1 in Xenopus oocytes and tested its activation by receptor stimulation using 1 μM LPA (lysophosphatidic acid). CaCCs in Xenopus are known to be activated by LPA (Guo, Z. et al., Proc Natl Acad Sci USA. 93, 14367-72 (1996); and Kim, M. J. et al., Biochem Pharmacol. 59, 241-7 (2000)). […] Moreover, LPA-induced ANO1 currents were outwardly-rectifying, like those of native CaCCs in Xenopus oocytes (Machaca, K. et al., supra) (FIG. 4C). The reversal potential was 37.7±1.05 mV (n=5), which is close to the equilibrium potential of Cl^− in Xenopus oocytes (Weber, W., Biochim Biophys Acta 1421, 213-33 (1999)).
Indeed, LPA (1 μM) applied to oocytes expressing mANO1 induced a large inward current.
Further, pretreatment of 1 μM thapsigargin blocked the IP3-induced current in a mANO1-expressing oocyte (FIGS. 10C and 10D).
as §2
(In general: In two-electrode clamp one electrode senses voltage and the other passes current.)

Assay [3] concerns mANO1. Nature of the assay: Whole-cell current response to GPCR stimulation in HEK 293T cells co-transfected with mANO1 and a GPCR. Particulars: mANO1 co-expressed in HEK cells with M1R, H1R or AT1R; carbachol 1 μM, histamine 100 μM, angiotensin II 1 μM. It counts as cell-based, mouse. As to the method:
HEK 293T cells were transfected with pEGFP-N1 (control) (1.0 μg) or pEGFP-N-1-mANO1 (0.8˜1.0 μg) and/or any one of the GPCR cDNAs (1.0 μg) obtained in Reference Example 2, using a FuGENE® HD transfection reagent (Roche Diagnostics, Penzberg, Germany). Transfected cells were maintained in DMEM supplemented with heat inactivated 10% fetal bovine serum (GIBCO BRL, Rockville, Md.) and penicillin-streptomycin at 37 in a 5% CO2 humidified atmosphere. One or two days after transfection, transfected cells were used for biochemical and electrophysiological experiments.
as §1
Under physiological conditions CaCCs are known to be activated by GPCR stimulation. Endothelin-1 is a powerful vasoconstrictor that depolarizes vascular smooth muscle by activating CaCCs (Klockner, U. & Isenberg, G., Pflugers Arch. 418, 168-75 (1991); and Salter, K. J. & Kozlowski, R. Z., J Pharmacol Exp Ther. 279, 1053-62 (1996)). Thus, mANO1 and endothelin receptor subtype A (ETAR) were transfected into HEK 293T cells, along with GFP for visual identification of transfected cells, in accordance with the method of Reference Example 5. Whole cells were used to test the current response of mANO1 to ETAR stimulation. Pipette and bath solutions contained 140 mM N-methyl D-glucamine (NMDG)-Cl, which permitted Cl^− to be used as the main charge carrier. The pipette solution was Ca^2+ free and contained no EGTA. […] In contrast, endothelin-1 evoked currents were minimal in HEK cells transfected with ETAR or control (GFP-transfected only) cells. When mANO1 was transfected alone, 50 nM endothelin-1 evoked appreciable currents; presumably because of the presence of endogenous endothelin receptors in HEK cells.

In the case of `CC/C(=C(\c1ccccc1)c1ccc(OCCN(C)C)cc1)c1ccccc1` [tamoxifen], the “inhibition of response to second application of endothelin-1 (endothelin-1 induced currents)” value (from here on “inhibition of response”) in assay [1] is given as “markedly inhibited”. Regarding `C/C=C(/C)C(=O)O[C@H]1C(C)=C2[C@H]([C@@H]1OC(=O)CCCCCCC)[C@@](C)(OC(C)=O)C[C@H](OC(=O)CCC)[C@@]1(O)[C@H]2OC(=O)[C@@]1(C)O` [thapsigargin], in assay [2], the “block of LPA current responses by pretreatment” value is listed as “completely blocked”. The “block of IP3-induced current” value in assay [2] (pretreatment of 1 μM thapsigargin, mANO1-expressing oocyte) is “blocked”.

As for `CNCCC(Oc1ccc(C(F)(F)F)cc1)c1ccccc1` (stereo not drawn) [fluoxetine], the “inhibition of response” value in assay [1] was “markedly inhibited”. For the compound `C[N+](C)(C)CCOC(N)=O` [carbachol], in assay [3], the “current responses to GPCR ligands” value was “robust current responses”. Turning to lysophosphatidic acid [LPA], the “current response to LPA in mANO1 RNA-injected vs water-injected oocytes” value in assay [2] (1 μM LPA, Xenopus oocytes, −60 mV) is “increased about six fold”. For `O=C(O)c1ccccc1Nc1ccccc1` [n-phenyl-anthranilic acid], the “inhibition of response” value in assay [1] is on record as “markedly inhibited”.

Take `OC(c1cc(C(F)(F)F)nc2c(C(F)(F)F)cccc12)C1CCCCN1` (stereo not drawn) [mefloquine]: in assay [1], the “inhibition of response” value is “markedly inhibited”. In the case of `COc1ccc2c(c1)CC[C@@H]1[C@@H]2CC[C@]2(C)[C@@H](NCCCCCCN3C(=O)C=CC3=O)CC[C@@H]12` [U-73122], the “block of LPA current responses by pretreatment” value in assay [2] is listed as “completely blocked”. Turning to `O=C(O)c1cc([N+](=O)[O-])ccc1NCCCc1ccccc1` [NPPB, 5-nitro-2-(3-phenyl-propylamino)-benzoate], the “inhibition of response” value in assay [1] was “markedly inhibited”. Besides, the “block of LPA-induced ANO1 currents” value in assay [2] (Xenopus oocytes) was “significantly blocked”. On the same counts, the results for `O=S(=O)(O)c1cc(N=C=S)ccc1C=Cc1ccc(N=C=S)cc1S(=O)(=O)O` [DIDS, 4,4′-diisothiocyanato-stilbene-2,2′-disulfonic acid] are “markedly inhibited” and “significantly blocked”. Regarding `NCCc1c[nH]cn1` [histamine], the “current responses to GPCR ligands” value in assay [3] is reported as “robust current responses”. Take `O=P(O)(O)O[C@@H]1[C@H](O)[C@H](O)[C@@H](OP(=O)(O)O)[C@H](OP(=O)(O)O)[C@H]1O` [IP3, inositol 1,4,5,-triphosphate]: the “inward currents evoked by IP3 micro-injection” value in assay [2] (2 mM IP3 in 50 nl into oocytes expressing ANO1) is on record as “evoked robust inward currents”.

`O=C(O)c1cccnc1Nc1cccc(C(F)(F)F)c1` [niflumic acid]: the “inhibition of response” value in assay [1] is “markedly inhibited”. Also, the “block of LPA-induced ANO1 currents” value in assay [2] (Xenopus oocytes) is “significantly blocked”. Consider “angiotensin II (DRVYIHPF) [ligand of angiotensin receptor subtype 1 (AT1R)]”, for which, in assay [3], the “current responses to GPCR ligands” value was “robust current responses”.
